# Measurements taken from patent EP0620225B1, “Cephalosporin derivatives” (Basilea Pharmaceutica AG, priority 1993, dated 1994).
# How the values were obtained:
# Acinetobacter sp.51-156 = assay: Antibacterial spectrum (MIC), agar dilution; format: cell-based; conditions: SP.51156, read-out: MIC
# Protocol: (§1) In vitro activity was determined by minimum inhibitory concentration in a microorganism spectum by the agar dilution method in Mueller Hinton agar.
# C.freundii 43 = assay: Antibacterial spectrum (MIC), agar dilution; format: cell-based; conditions: Citrobacter freundii, read-out: MIC
# Protocol: as §1
# C.freundii 902 = assay: Antibacterial spectrum (MIC), agar dilution; format: cell-based; conditions: Citrobacter freundii, read-out: MIC
# Protocol: as §1
# E.cloacae 908R = assay: Antibacterial spectrum (MIC), agar dilution; format: cell-based; conditions: Enterobacter cloacae, read-out: MIC
# Protocol: as §1
# E.cloacae 908SSi = assay: Antibacterial spectrum (MIC), agar dilution; format: cell-based; conditions: Enterobacter cloacae, read-out: MIC
# Protocol: as §1
# E.coli 25922 = assay: Antibacterial spectrum (MIC), agar dilution; format: cell-based; conditions: Escherichia coli, read-out: MIC
# Protocol: as §1
# E.faecalis 6 = assay: Antibacterial spectrum (MIC), agar dilution; format: cell-based; conditions: Enterococcus faecalis, read-out: MIC
# Protocol: as §1
# H.influenzae 1 = assay: Antibacterial spectrum (MIC), agar dilution; format: cell-based; conditions: Haemophilus influenzae, read-out: MIC
# Protocol: as §1
# K.pneumoniae 418 = assay: Antibacterial spectrum (MIC), agar dilution; format: cell-based; conditions: Klebsiella pneumoniae, read-out: MIC
# Protocol: as §1
# L.monocytogenes BK23 = assay: Antibacterial spectrum (MIC), agar dilution; format: cell-based; conditions: Listeria monocytogenes, read-out: MIC
# Protocol: as §1
# M.catarrhalis RA21 = assay: Antibacterial spectrum (MIC), agar dilution; format: cell-based; conditions: Moraxella catarrhalis, read-out: MIC
# Protocol: as §1
# M.morganii 6H-137 = assay: Antibacterial spectrum (MIC), agar dilution; format: cell-based; conditions: Morganella morganii, 6H137, read-out: MIC
# Protocol: as §1
# N.meningitidis 69480 = assay: Antibacterial spectrum (MIC), agar dilution; format: cell-based; conditions: Neisseria meningitidis, read-out: MIC
# Protocol: as §1
# P.aeruginosa 27853 = assay: Antibacterial spectrum (MIC), agar dilution; format: cell-based; conditions: Pseudomonas aeruginosa, read-out: MIC
# Protocol: as §1
# P.mirabilis 2117 = assay: Antibacterial spectrum (MIC), agar dilution; format: cell-based; conditions: Proteus mirabilis, read-out: MIC
# Protocol: as §1
# P.vulgaris 1028 = assay: Antibacterial spectrum (MIC), agar dilution; format: cell-based; conditions: Proteus vulgaris, read-out: MIC
# Protocol: as §1
# S.agalactiae QK44 = assay: Antibacterial spectrum (MIC), agar dilution; format: cell-based; conditions: Streptococcus agalactiae, read-out: MIC
# Protocol: as §1
# S.aureus 6538 = assay: Antibacterial spectrum (MIC), agar dilution; format: cell-based; conditions: Staphylococcus aureus, read-out: MIC
# Protocol: as §1
# S.aureus 734 MRSA = assay: Antibacterial spectrum (MIC), agar dilution; format: cell-based; conditions: Staphylococcus aureus, read-out: MIC
# Protocol: as §1
# S.marcescens 69438 = assay: Antibacterial spectrum (MIC), agar dilution; format: cell-based; conditions: Serratia marcescens, read-out: MIC
# Protocol: as §1
# S.pneumoniae Q19 = assay: Antibacterial spectrum (MIC), agar dilution; format: cell-based; conditions: Streptococcus pneumoniae, read-out: MIC
# Protocol: as §1
# S.pyogenes B15 = assay: Antibacterial spectrum (MIC), agar dilution; format: cell-based; conditions: Streptococcus pyogenes, read-out: MIC
# Protocol: as §1
# S.viridans group 016 = assay: Antibacterial spectrum (MIC), agar dilution; format: cell-based; conditions: Streptococcus viridans, read-out: MIC
# Protocol: as §1
# X.maltophilia 1AC739 = assay: Antibacterial spectrum (MIC), agar dilution; format: cell-based; conditions: Stenotrophomonas maltophilia, read-out: MIC
# Protocol: as §1
# S.aureus MSSA = assay: In vitro activity against selected species (MIC50, MIC90, range); format: cell-based; conditions: Staphylococcus aureus, medium MHB (Mueller Hinton Broth)
# S.pneumoniae PEN-R = assay: as above; format: cell-based; conditions: Streptococcus pneumoniae; for MIC: MIC range
# S.viridans group = assay: as above; format: cell-based; conditions: Streptococcus viridans
# E.faecalis [1] = assay: as above; format: cell-based; conditions: Enterococcus faecalis, medium MHA
# Protocol: as §1
# S.aureus MRSA = assay: as above; format: cell-based; conditions: Staphylococcus aureus, medium MHA (Mueller Hinton Agar) +NaCl
# Protocol: as §1
# E.faecium = assay: In vitro activity against selected species (MIC50, range); format: cell-based; conditions: Enterococcus faecium, medium MHA
# Protocol: as §1
# M.catarrhalis = assay: In vitro activity against selected species (MIC50, MIC90, range); format: cell-based; conditions: Moraxella catarrhalis, medium IsoB
# Escherichia coli 25922 = assay: Efficacy against systemic infections (septicemia) in mice; format: in vivo; conditions: 96 h, Escherichia coli 25922, po (orally) 1 and 3 h after challenge, survival day 4
# Protocol: Septicemia was induced in outbred Swiss albino mice (Jbm MoRo [specific pathogen free]; weight 16 to 20 g, Biomedical Research Laboratories, Füllinsdorf, Switzerland). Mice were infected by intraperitoneal injection of diluted overnight cultures of the test organisms. Bacterial challenge doses were 4-10 times the number of organisms required to kill 50% of untreated animals within 48 h. The test compounds were administered p.o. or s.c. 1 and 3 h after the bacterial challenge. To treat the infection with Pseudomonas aeruginosa BA an additional dose was given 5 h after challenge. Control and treatment groups at each dose were composed of five mice each. The 50% effective dose (ED50, in milligrams per kilogram) was calculated by probit analysis as described by Finney (Finney, D.J. 1978, Statistical method in biological assay, 3rd ed. Charles Griffin & Co., Ltd., London), from the survival rates on day 4 after infection.
# E.faecalis [2] = assay: In vitro activity against selected species (MIC50, MIC90, range); format: cell-based; conditions: Enterococcus faecalis, medium IsoB
# [3] = medium IsoB (Isosensitest Broth)
structure (smiles),measurement,setting,value
"Nc1nc(/C(=N/O)C(=O)N[C@@H]2C(=O)N3C(C(=O)O)=C(/C=C4\CCN(CC5CC5)C4=O)CS[C@H]23)cs1 [N, [6R-[3(E),6α,7β(Z)]]-7-[[(2-Amino-4-thiazolyl)(hydroxyimino)acetyl]-amino]-3-[[1-cyclopropylmethyl-2-oxo-3-pyrrolidinylidene]methyl]-8-oxo-5-thia-1-azabicyclo[4.2.0]oct-2-ene-2-carboxylic acid]",MIC,Acinetobacter sp.51-156,16 µg/mL
same,MIC,C.freundii 43,4 µg/mL
same,MIC,C.freundii 902,0.12 µg/mL
same,MIC,E.cloacae 908R,8 µg/mL
same,MIC,E.cloacae 908SSi,1 µg/mL
same,MIC,E.coli 25922,≤ 0.06 µg/mL
same,MIC,E.faecalis 6,1 µg/mL
same,MIC,H.influenzae 1,0.25 µg/mL
same,MIC,K.pneumoniae 418,0.12 µg/mL
same,MIC,L.monocytogenes BK23,4 µg/mL
same,MIC,M.catarrhalis RA21,8 µg/mL
same,MIC,M.morganii 6H-137,≤ 0.06 µg/mL
same,MIC,N.meningitidis 69480,0.25 µg/mL
same,MIC,P.aeruginosa 27853,16 µg/mL
same,MIC,P.mirabilis 2117,≤ 0.06 µg/mL
same,MIC,P.vulgaris 1028,0.25 µg/mL
same,MIC,S.agalactiae QK44,0.5 µg/mL
same,MIC,S.aureus 6538,0.5 µg/mL
same,MIC,S.aureus 734 MRSA,8 µg/mL
same,MIC,S.marcescens 69438,0.5 µg/mL
same,MIC,S.pneumoniae Q19,≤ 0.06 µg/mL
same,MIC,S.pyogenes B15,≤ 0.06 µg/mL
same,MIC,S.viridans group 016,1 µg/mL
same,MIC,X.maltophilia 1AC739,> 32 µg/mL
CC(C)(C)N1CC/C(=C\C2=C(C(=O)O)N3C(=O)[C@@H](NC(=O)/C(=N\O)c4csc(N)n4)[C@H]3SC2)C1=O [J],MIC,Acinetobacter sp.51-156,> 32 µg/mL
same,MIC,C.freundii 43,4 µg/mL
same,MIC,C.freundii 902,0.5 µg/mL
same,MIC,E.cloacae 908R,8 µg/mL
same,MIC,E.cloacae 908SSi,2 µg/mL
same,MIC,E.coli 25922,0.5 µg/mL
same,MIC,E.faecalis 6,2 µg/mL
same,MIC,H.influenzae 1,0.25 µg/mL
same,MIC,K.pneumoniae 418,1 µg/mL
same,MIC,M.catarrhalis RA21,16 µg/mL
same,MIC,M.morganii 6H-137,0.25 µg/mL
same,MIC,N.meningitidis 69480,0.12 µg/mL
same,MIC,P.aeruginosa 27853,> 32 µg/mL
same,MIC,P.mirabilis 2117,0.12 µg/mL
same,MIC,P.vulgaris 1028,0.5 µg/mL
same,MIC,S.agalactiae QK44,0.25 µg/mL
same,MIC,S.aureus 6538,1 µg/mL
same,MIC,S.aureus 734 MRSA,16 µg/mL
same,MIC,S.marcescens 69438,1 µg/mL
same,MIC,S.pneumoniae Q19,0.12 µg/mL
same,MIC,S.pyogenes B15,< 0.06 µg/mL
same,MIC,S.viridans group 016,1 µg/mL
same,MIC,X.maltophilia 1AC739,> 32 µg/mL
same,MIC,S.aureus MSSA; MIC range,0.5 to 2 µg/mL
same,MIC50,S.aureus MSSA,1 µg/mL
same,MIC90,S.aureus MSSA,2 µg/mL
same,MIC,S.pneumoniae PEN-R; [3],0.12 to 0.5 µg/mL
same,MIC,S.pneumoniae PEN-R; medium IsoB + 20% serum,0.1 to 1 µg/mL
same,MIC50,S.pneumoniae PEN-R; [3],0.25 µg/mL
same,MIC90,S.pneumoniae PEN-R; [3],0.5 µg/mL
same,MIC50,S.pneumoniae PEN-R; medium IsoB + 20% serum,0.5 µg/mL
same,MIC50,S.viridans group,2 µg/mL
same,MIC90,S.viridans group,4 µg/mL
same,MIC,S.viridans group; MIC range,0.12 to 8 µg/mL
same,MIC,E.faecalis [1]; MIC range,1 to 8 µg/mL
same,MIC50,E.faecalis [1],2 µg/mL
same,MIC90,E.faecalis [1],4 µg/mL
same,MIC,S.aureus MRSA; MIC range,16 to 32 µg/mL
same,MIC50,S.aureus MRSA,32 µg/mL
same,MIC90,S.aureus MRSA,32 µg/mL
same,MIC,E.faecium; MIC range,2 to 32 µg/mL
same,MIC50,E.faecium,4 µg/mL
same,MIC,M.catarrhalis; MIC range,2 to 32 µg/mL
same,MIC50,M.catarrhalis,8 µg/mL
same,MIC90,M.catarrhalis,16 µg/mL
same,ED50,Escherichia coli 25922,> 2 mg/kg
same,MIC,E.faecalis [2]; MIC range,0.5 to 4 µg/mL
same,MIC50,E.faecalis [2],2 µg/mL
same,MIC90,E.faecalis [2],2 µg/mL
